The structures appear in SMILES notation.

One experiment deals with A. fumigatus hyphae. Briefly: In vitro fungal killing assay (hyphal coincubation) with human neutrophils. Format: cell-based, Aspergillus fumigatus. Particulars: IL-6/23-stimulated, inhibitor 20 μM, FIG. 6F. From the text: Aspergillus strains—For cornea infections and in vitro fungal killing assays, an RFP expressing strain of A. fumigatus (Af-dsRed) was used. This strain is gpdA promoter driven to constitutively express monomeric dsRed. For subcutaneous “priming” injections, heat-killed, swollen conidia Aspergillus fumigatus strain Af-BP was used. For the Aspergillus hyphal extract used in ROS assay, A. fumigatus strain Af-BP hyphae were pulverized in liquid nitrogen, filtered through a 30 μm pre-separation filter (Miltenyi Biotec) and protein measured by the BCA method (Pierce). Aspergillus hyphal extracts (AspHE) were stored at −20° C. and used at a final concentration of 1 mg/ml.
A hyphal coincubation assay was used to study the ability of murine and human neutrophils to inhibit A. fumigatus hyphal growth as described. Briefly, 12,500 A. fumigatus dsRed expressing conidia (strain Af-dsRed) per 200 μl Sabouraud dextrose media were added to wells of black-walled 96 well plates with an optically clear bottom (CoStar 3720). After 6 h, the conidia had germinated and the hyphae became adherent to the wells, at which time the medium was removed.
(§1) Murine and human neutrophils were incubated with p-STAT3 (20 μM Stattic or 20 μM INC424) or RORγt inhibitors (20 μM SR1001) for 2 h. Then the cells were stimulated with […] of rIL-6 and 2 μg/ml of rIL-23 for 3 h, washed, and 2×10^5 bone marrow-derived murine neutrophils or 10^5 human peripheral blood neutrophils, with or without recombinant IL-17A, were added to each well with growing hyphae. RPMI media was used as positive control (unimpaired growth), and PBS was used as a negative control (no growth (data not shown)). After 16 h the wells were washed with PBS and the dsRed fungal mass was quantified in a 96-well fluorometer at 550/600 nm excitation/emission filter (Synergy HT, Biotek).

Experiment [1] has as its system bone marrow-derived murine neutrophils. Briefly: ROS production (CFDA) by murine bone marrow neutrophils incubated with Aspergillus hyphae. Particulars: IL-6/23-stimulated, inhibitor 20 μM, FIG. 6C. Format: cell-based, C57BL/6 mice. On the procedure: as §1
(§2) In vitro ROS production measured by CFDA was previously described. Briefly, 100 μg/100 μl of A. fumigatus hyphal extract (AspHE) were incubated with 2×10^5 murine or human neutrophils. Neutrophils were treated for 1 h with 1 μM Carboxyfluorescein diacetate (H2CFDA (Sigma)), which will fluoresce following ROS oxidation. Neutrophils were collected and analyzed by flow cytometry. H2CFDA pulsed neutrophils that had not been incubated with AspHE were used to set the ROS histogram gate. The average mean intensity was calculated by Accuri flow software and graphed in Prism.

The next experiment concerns p-STAT3. Briefly: STAT3 phosphorylation in IL-6/23-stimulated murine bone marrow neutrophils (flow cytometry). Type of experiment: cell-based, C57BL/6 mice. Particulars: inhibitor 20 μM, 1 h IL-6+IL-23, FIG. 4C. An excerpt:
Total bone marrow-derived cells were isolated from mouse femurs and tibias by flushing with RPMI and an 18-gauge needle. Erythrocytes were lysed with 1× lysis buffer (eBioscience), and bone marrow cells were separated on a Percoll (Fisher) gradient by density centrifugation (52%, 69%, and 78%). Cells at the 69-78% interface were harvested, and neutrophil purity (>98%) confirmed by flow cytometry and Wright-Giemsa staining. Murine or human neutrophils were suspended at a density of 10^6 cells/ml and incubated with […] of recombinant mouse or human IL-6 and 2 μg/ml IL-23 in RPMI, and the cells were maintained for 1-3 h at 37° C. in 5% CO2. Various inhibitors were used for assessing STAT3 activation. […] For the determination of RORγt-dependent signaling, SR1001 (20 μM; Sigma) was used, which inhibits RORγt binding to the IL-17 promoter site. All inhibitors were added to neutrophils 2 h prior to recombinant IL-6 and IL-23 stimulation. Corneas were dissected and incubated for 1 h at 37° C. in collaganese (80 U/ml) (C0130; Sigma-Aldrich), and washed in FACS buffer (PBS+1% FBS+0.5% Sodium azide). Ten corneas were pooled and analyzed by intracellular flow cytometry. Conversely, bone marrow cells or neutrophils were collected as described above and washed in FACS buffer. […] Cells were analyzed using a C6 Accuri flow cytometer (BD). […]
(In flow cytometry, cells or beads pass a laser one at a time.)

The test system of experiment [2] is human peripheral blood neutrophils. Briefly: ROS production (CFDA) by human peripheral blood neutrophils incubated with Aspergillus hyphae. Format: cell-based. Particulars: IL-6/23-stimulated, inhibitor 20 μM, FIG. 6E. How it is done:
as §1, §2

Take `O=[N+]([O-])c1ccc2c(c1)S(=O)(=O)C=C2` [Stattic]: the fluorescent fungal mass entry with A. fumigatus hyphae (plus rhIL-17A) is “decreased fungal mass”; with A. fumigatus hyphae (without rhIL-17A), “no increase in ROS (FIG. 6E) or decrease in fluorescent fungal mass”. The ROS production result is “ROS production was increased” in experiment [1] (plus rIL-17A), “not increased above the level produced by naïve neutrophils” in experiment [1] (without rIL-17A), “increased ROS” in experiment [2] (plus rhIL-17A) and “no increase in ROS” in experiment [2] (without rhIL-17A). Also, in the experiment with p-STAT3, the “p-STAT3 in IL-6/23 stimulated neutrophils” value was “completely inhibited”.
